The values that follow are results of earlier work, collected in US20040132104A1, “Vitamin D assay” (priority 2003, published 2004).

This series has as its target T1, Vitamin D binding protein (Homo sapiens, UniProt P02774).
T1 sequence (P02774 17-474): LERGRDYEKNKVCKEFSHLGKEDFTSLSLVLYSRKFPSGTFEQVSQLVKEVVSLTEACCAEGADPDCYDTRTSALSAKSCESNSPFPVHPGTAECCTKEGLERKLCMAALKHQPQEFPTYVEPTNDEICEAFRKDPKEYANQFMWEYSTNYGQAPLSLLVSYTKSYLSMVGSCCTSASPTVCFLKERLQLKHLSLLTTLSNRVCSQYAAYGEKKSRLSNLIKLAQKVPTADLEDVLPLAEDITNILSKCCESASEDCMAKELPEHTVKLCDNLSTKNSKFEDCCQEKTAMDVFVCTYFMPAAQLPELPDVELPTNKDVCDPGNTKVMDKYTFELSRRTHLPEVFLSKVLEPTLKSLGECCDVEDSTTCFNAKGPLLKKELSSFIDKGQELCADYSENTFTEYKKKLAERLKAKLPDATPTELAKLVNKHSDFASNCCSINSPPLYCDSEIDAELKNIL
The conditions noted are these: Vitamin D binding protein affinity for 25-OH Vitamin D.

25-hydroxy-vitamin D [25-OH Vitamin D]: the affinity was 5e+08 M⁻¹.
